Active and inactive are the calls of the source. How the calls were made is not given here.

Results on seven molecules are retold here after PubChem BioAssay AID1259407 (Chemical Carcinogenesis Research Information System (CCRIS), 2018).

The test system of this series is CCRIS mutagenicity, Ames/micronucleus/aberration tests. The experiment in a line: CCRIS mutagenicity studies.
Where [1] appears, read: Test System: AMES SALMONELLA TYPHIMURIUM, Strain/Indicator: TA98, Metabolic Activation: NONE, Method: PREINCUBATION
Where [2] appears, read: Test System: AMES SALMONELLA TYPHIMURIUM, Strain/Indicator: TA100, Metabolic Activation: NONE, Method: FLUCTUATION TEST.
[3] abbreviates: Test System: AMES SALMONELLA TYPHIMURIUM, Strain/Indicator: TA100, Metabolic Activation: RAT, LIVER, S-9, AROCLOR 1254, Method: FLUCTUATION TEST.
Setting [4] is: Test System: AMES SALMONELLA TYPHIMURIUM, Strain/Indicator: TA98, Metabolic Activation: NONE, Method: STANDARD PLATE.
[5] abbreviates: Test System: AMES SALMONELLA TYPHIMURIUM, Strain/Indicator: TA100, Metabolic Activation: NONE, Method: STANDARD PLATE.
[6] abbreviates: Test System: AMES SALMONELLA TYPHIMURIUM, Strain/Indicator: TA100, Metabolic Activation: RAT, LIVER, S-9, PHENOBARBITAL AND 5,6-BENZOFLAVONE, Method: PREINCUBATION

On to `O=C(O)C(Br)(Br)Br`, for which the mutagenic call is “inactive; negative” (Test System: AMES SALMONELLA TYPHIMURIUM, Strain/Indicator: RSJ100, Metabolic Activation: NONE, Method: PREINCUBATION); “inactive; negative” (Test System: AMES SALMONELLA TYPHIMURIUM, Strain/Indicator: RSJ100, Metabolic Activation: RAT LIVER S-9, Method: PREINCUBATION); “inactive; negative” under setting [1]; “inactive; negative” (Test System: AMES SALMONELLA TYPHIMURIUM, Strain/Indicator: TA98, Metabolic Activation: RAT LIVER S-9, Method: PREINCUBATION); “active; positive” under setting [2]; “inactive; negative” (Test System: AMES SALMONELLA TYPHIMURIUM, Strain/Indicator: TA100, Metabolic Activation: NONE, Method: PREINCUBATION). In addition, the mutagenic call (Test System: AMES SALMONELLA TYPHIMURIUM, Strain/Indicator: TA100, Metabolic Activation: RAT LIVER S-9, Method: PREINCUBATION) is “inactive; negative” and the mutagenic call under setting [3] is “active; positive”.
Consider `OC(O)C(Cl)(Cl)Cl`, for which the mutagenic call (End Point: IN VITRO MICRONUCLEUS, Test System: HAMSTER V79 CELLS, Metabolic Activation: NONE) was “active; positive”; the mutagenic call (End Point: IN VIVO MICRONUCLEUS, Test System: BLOOD LYMPHOCYTES, Species: HUMAN, Strain/Sex: INFANTS/MALE, FEMALE, Route: ORAL) was “active; positive”; the mutagenic call (Test System: AMES SALMONELLA TYPHIMURIUM, Strain/Indicator: TA98, Metabolic Activation: HAMSTER LIVER S-9 (10%), AROCLOR 1254, Method: PREINCUBATION) was “inactive; negative”; the mutagenic call under setting [1] is “inactive; negative”; the mutagenic call under setting [4] was “inactive; negative”; the mutagenic call (Test System: AMES SALMONELLA TYPHIMURIUM, Strain/Indicator: TA98, Metabolic Activation: RAT LIVER S-9 (10%), AROCLOR 1254, Method: PREINCUBATION) was “inactive; negative”. Moreover, the mutagenic call was “inactive; negative” (Test System: AMES SALMONELLA TYPHIMURIUM, Strain/Indicator: TA98, Metabolic Activation: RAT, LIVER, S-9, AROCLOR 1254, Method: STANDARD PLATE); “inactive; negative” (Test System: AMES SALMONELLA TYPHIMURIUM, Strain/Indicator: TA98, Metabolic Activation: RAT, LIVER, S-9, PHENOBARBITAL AND 5,6-BENZOFLAVONE, Method: PREINCUBATION); “active; positive” (Test System: AMES SALMONELLA TYPHIMURIUM, Strain/Indicator: TA100, Metabolic Activation: HAMSTER LIVER S-9 (10%), AROCLOR 1254, Method: PREINCUBATION); “inactive; negative” under setting [2]; “inactive; negative” under setting [5]; “active; positive” (Test System: AMES SALMONELLA TYPHIMURIUM, Strain/Indicator: TA100, Metabolic Activation: RAT LIVER S-9 (10%), AROCLOR 1254, Method: PREINCUBATION). Also, the mutagenic call runs as follows: under setting [3], “active; positive”; (Test System: AMES SALMONELLA TYPHIMURIUM, Strain/Indicator: TA100, Metabolic Activation: RAT, LIVER, S-9, AROCLOR 1254, Method: STANDARD PLATE) “inactive; negative”; under setting [6], “inactive; negative”; (Test System: AMES SALMONELLA TYPHIMURIUM, Strain/Indicator: TA1535, Metabolic Activation: HAMSTER LIVER S-9 (10%), AROCLOR 1254, Method: PREINCUBATION) “inactive; negative”; (Test System: AMES SALMONELLA TYPHIMURIUM, Strain/Indicator: TA1535, Metabolic Activation: NONE, Method: PREINCUBATION) “inactive; negative”; (Test System: AMES SALMONELLA TYPHIMURIUM, Strain/Indicator: TA1535, Metabolic Activation: NONE, Method: STANDARD PLATE) “inactive; negative”. Besides, the mutagenic call was “inactive; negative” (Test System: AMES SALMONELLA TYPHIMURIUM, Strain/Indicator: TA1535, Metabolic Activation: RAT LIVER S-9 (10%), AROCLOR 1254, Method: PREINCUBATION); “inactive; negative” (Test System: AMES SALMONELLA TYPHIMURIUM, Strain/Indicator: TA1535, Metabolic Activation: RAT, LIVER, S-9, AROCLOR 1254, Method: STANDARD PLATE); “inactive; negative” (Test System: AMES SALMONELLA TYPHIMURIUM, Strain/Indicator: TA1537, Metabolic Activation: HAMSTER LIVER S-9 (10%), AROCLOR 1254, Method: PREINCUBATION); “inactive; negative” (Test System: AMES SALMONELLA TYPHIMURIUM, Strain/Indicator: TA1537, Metabolic Activation: NONE, Method: PREINCUBATION); “inactive; negative” (Test System: AMES SALMONELLA TYPHIMURIUM, Strain/Indicator: TA1537, Metabolic Activation: NONE, Method: STANDARD PLATE); “inactive; negative” (Test System: AMES SALMONELLA TYPHIMURIUM, Strain/Indicator: TA1537, Metabolic Activation: RAT LIVER S-9 (10%), AROCLOR 1254, Method: PREINCUBATION). Further, the mutagenic call was “inactive; negative” (Test System: AMES SALMONELLA TYPHIMURIUM, Strain/Indicator: TA1537, Metabolic Activation: RAT, LIVER, S-9, AROCLOR 1254, Method: STANDARD PLATE); “inactive; negative” (Test System: AMES SALMONELLA TYPHIMURIUM, Strain/Indicator: TA1538, Metabolic Activation: NONE, Method: STANDARD PLATE); “inactive; negative” (Test System: AMES SALMONELLA TYPHIMURIUM, Strain/Indicator: TA1538, Metabolic Activation: RAT, LIVER, S-9, AROCLOR 1254, Method: STANDARD PLATE); “active; positive” (Test System: MOUSE LYMPHOMA, Strain/Indicator: L5178Y (TK+/TK- -3.7.2C), Metabolic Activation: NONE).
For the molecule `Nc1cc(S(=O)(=O)O)cc2cc(S(=O)(=O)O)c(N=Nc3ccccc3)c(O)c12`, the mutagenic call is, setting by setting: under setting [4], “inactive; negative”; (Test System: AMES SALMONELLA TYPHIMURIUM, Strain/Indicator: TA98, Metabolic Activation: RAT LIVER S-9, AROCLOR 1254, Method: STANDARD PLATE) “inactive; negative”; under setting [5], “inactive; negative”; (Test System: AMES SALMONELLA TYPHIMURIUM, Strain/Indicator: TA100, Metabolic Activation: RAT LIVER S-9, AROCLOR 1254, Method: STANDARD PLATE) “inactive; negative”.
On to `C=CCOC(=O)CCCCC`, for which the mutagenic call (Test System: AMES SALMONELLA TYPHIMURIUM, Strain/Indicator: TA97, Metabolic Activation: NONE, Method: PREINCUBATION) is “inactive; negative”; the mutagenic call (Test System: AMES SALMONELLA TYPHIMURIUM, Strain/Indicator: TA97, Metabolic Activation: RAT, LIVER, S-9, AROCLOR 1254, Method: PREINCUBATION) is “inactive; negative”; the mutagenic call (Test System: AMES SALMONELLA TYPHIMURIUM, Strain/Indicator: TA102, Metabolic Activation: NONE, Method: PREINCUBATION) was “inactive; negative”; the mutagenic call (Test System: AMES SALMONELLA TYPHIMURIUM, Strain/Indicator: TA102, Metabolic Activation: RAT, LIVER, S-9, AROCLOR 1254, Method: PREINCUBATION) is “inactive; negative”.
`COCC(=O)N(c1c(C)cccc1C)C(C)C(=O)OC` (stereo unspecified): the mutagenic call was “inactive; negative (positive only at 50 ug/ml dose)” (End Point: In vitro micronucleus, Test System: Human lymphocytes, Metabolic Activation: None) and “active; positive (at high dose)” (End Point: In vivo micronucleus, Test System: Bone marrow polychromatic erythrocytes, Species: Rat, Strain/Sex: Wistar/Male, Route: Oral).
Regarding `C[C@]12CC[C@@H]3c4ccc(O)c(O)c4CC[C@H]3[C@@H]1CCC2=O`, the mutagenic call is, setting by setting: (Test System: Ames Salmonella typhimurium, Strain/Indicator: TA98, Metabolic Activation: None, Method: Standard plate) “inactive; negative”; (Test System: Ames Salmonella typhimurium, Strain/Indicator: TA98, Metabolic Activation: Rat, liver, S-9, Method: Standard plate) “inactive; negative”; (Test System: Ames Salmonella typhimurium, Strain/Indicator: TA100, Metabolic Activation: None, Method: Standard plate) “inactive; negative”; (Test System: Ames Salmonella typhimurium, Strain/Indicator: TA100, Metabolic Activation: Rat, liver, S-9, Method: Standard plate) “inactive; negative”.
Consider `Fc1cc2cccnc2c2cccnc12`, for which, under setting [6], the mutagenic call was “active; positive”.
